In patent US7947312B2, “Method of preparation and composition of a water soluble extract of the bioactive component of the plant species Uncaria for enhancing immune, anti-inflammatory, anti-tumor and DNA repair processes of warm blooded animals” (priority 2002, dated 2011):
Structures can show the parent of a compound that is named as a salt.

Assays:
[1] = test system: HL-60 human leukemic cells; experiment: In vitro cytotoxicity in HL-60 cells, MTT assay (Table 2); type: cell-based; conditions: Homo sapiens, HL-60; no base hydrolysis
Procedure: In Table 2, the in vitro cytotoxicity of the various components were determined in HL-60 human leukemic cells using the MTT assay and calculation of IC50 values as described in detail elsewhere. Quinic acid ester content was determined by the Bartos method (Bartos, 1980). […] The quinic acid traveling between Rf=0.2-0.3 was eluted from the TLC plates with 1% aqueous ammonia and the relative quantity estimated by absorption at 200 nm as ± being less than 0.050 and “++++” denoting the highest amount detected, with a decrease in the number of “+” signs corresponding to a decrease in the amount of QA detected.

[2] = test system: human HL-60 leukemic cells; experiment: In vitro growth inhibition by QA salts in cultured HL-60 cells, MTT, 72 hr (FIG. 8); type: cell-based; conditions: for in vitro cytotoxicity compared to C-MED-100 (FIG. 8): HL-60 cells
Procedure: QA was purchased from Sigma (>99%). QA salts were synthesized by neutralization with the appropriate base, i.e., NH4OH, NaOH, Ca(OH)2, Zn(OH)2, LiOH, KOH, lysine or histidine. Serial dilutions of test compounds were added to human HL-60 leukemic cells (0.05×10^6 cells/ml) in 96-well, flat bottomed microtiter plates to give final concentrations in the cultures up to 3000 μg/ml. The plates were incubated for 72 hr at 37 C, pulsed with 20 μl MTT (5 mg/ml) for 3 hr, and the color estimated spectrophotometrically at 540 nm as described previously. (Schweitzer, C M et al. Spectrophotometric determination of clonogenic capacity of leukemic cells in semisolid microtiter culture systems. Experimental Hematology 21: 573-578, 1993). IC50 values were calculated and compared based on the live/dead ratio of cells.

[3] = test system: Raji human Burkitt's lymphoma; experiment: Raji cell proliferation (Coulter count, trypan blue); type: cell-based; conditions: 48 hours
Procedure: FIG. 3A illustrates Raji cells (2×10^5) that were cultured in the presence of indicated concentrations of C-MED-100®, QAA or QA. Growth rate was assayed after 48 hours by counting triplicate samples of duplicate cultures in a Coulter cell counter. Results from one representative experiment out of two performed is presented as mean values of cell/ml±standard deviation (S.D).
FIG. 3B illustrates triplicate samples of cells from duplicate parallel cultures stained with trypan blue at indicated times and counted.
Cell cultures: Raji human Burkitt's lymphoma (CCL-86), Jurkat human acute T-cell leukemia (TIB-152), 70Z/3 mouse pre-B lymphocyte cell line (TIB-158), or mouse spleen cells were used in the experiments. The cells were cultured in RPMI medium (Life Technologies) supplemented with 10% FCS, 10 mM HEPES buffer, antibiotics, 50 μM 2-mercaptoethanol and 1 mM sodium pyruvate (all supplements from Life Technologies) at 37° C., 5% CO2. The number of Raji cells in duplicate cultures were determined with a Coulter Z1 cell counter (Beckman Coulter Inc, Fullerton, Calif., USA) three times each. The number of viable and dead cells were determined using trypan blue exclusion, by counting three independent samples from duplicate cultures. […] Proliferation was detected by measuring thymidine incorporation after a 4 hours pulse with 1 μCi ^3[H]-thymidine (Amersham Pharmacia).

[4] = test system: mouse spleen cells; type: cell-based; conditions: for fraction of apoptotic T cells: Con A stimulated cultures (FIG. 4B); for induction of cell death in mitogen-stimulated spleen cells: mouse
Text: Cells from parallel cultures were stained with trypan blue and the mean absolute number of viable and dead cells/ml from one out of three similar experiments are shown. […] Aliquots of the above cultures were stained with Annexin V and 7AAD and analyzed by flow cytometry. The results are presented as the mean number of Annexin V^+7AAD^− (apoptotic) and 7AAD^+ (dead) cells/ml±S.D. of duplicates from three experiments with similar results. Statistically significant differences (*p<0.05) and (**p<0.01) compared to the control cultures stimulated with Con A (FIG. 4B) or LPS (FIG. 4C) alone.
Cell cultures: Raji human Burkitt's lymphoma (CCL-86), Jurkat human acute T-cell leukemia (TIB-152), 70Z/3 mouse pre-B lymphocyte cell line (TIB-158), or mouse spleen cells were used in the experiments. The cells were cultured in RPMI medium (Life Technologies) supplemented with 10% FCS, 10 mM HEPES buffer, antibiotics, 50 μM 2-mercaptoethanol and 1 mM sodium pyruvate (all supplements from Life Technologies) at 37° C., 5% CO2. The number of Raji cells in duplicate cultures were determined with a Coulter Z1 cell counter (Beckman Coulter Inc, Fullerton, Calif., USA) three times each. The number of viable and dead cells were determined using trypan blue exclusion, by counting three independent samples from duplicate cultures. Cells were stained with 2 μg/ml 7-amino-actinomycin D (7AAD; Sigma-Aldrich, St Louis, Mo., USA) and with Annexin V (Molecular Probes) according to the manufacturer's protocol and the cells were defined as apoptotic (Annexin V+7AAD^−) or dead (7AAD^+) by flow cytometry. Spleen cells were polyclonally activated with 2.5 μg/ml concanavalin A (Con A; Amersham Pharmacia, Uppsala, Sweden) or 10 μg/ml lipopolysaccharide (LPS; Sigma-Aldrich). PMA (50 ng/ml) and ionomycin (1 μM) (both from Sigma-Aldrich) and pyrollidine dithiocarbamate (PDTC) (100 μM, EMD Bioscience Inc, Calbiochem, San Diego, Calif., USA) were used in some cultures as indicated. Proliferation was detected by measuring thymidine incorporation after a 4 hours pulse with 1 μCi ^3[H]-thymidine (Amersham Pharmacia).

[5] = test system: NF-κB; experiment: NF-κB reporter (luciferase) in transfected Jurkat T cells; type: cell-based, human; conditions: PMA 50 ng/ml and ionomycin 1 μM, 2 h pre-culture, 6 h stimulation
Procedure: FIG. 5A illustrates Jurkat T that are cells transfected with a NF-κB reporter construct were pre-cultured with various concentrations of QA or C-MED-100® for two hours. PMA (50 ng/ml) and ionomycin (1 μM) were thereafter added and the cells incubated for another six hours. The mean induction of luciferase activity in triplicate cultures from one representative experiment out of four are shown (left panel). QA induced no cell death or apoptosis in Jurkat T cells at concentrations which inhibited NF-κB activity. Jurkat T cells were incubated with various concentrations of QA for 24 hours and thereafter stained with Annexin V and 7AAD before analysis by flow cytometry. The data are the mean values±S.D. of triplicates from one representative experiment out of two performed (right panel). Transient transfection and analysis of luciferase activity: The reporter construct containing NF-κB binding sequences and the luciferase reporter gene was previously described. […] The cells were lysed and aliquots of the lysates analyzed for luciferase activity using the Luciferase Assay System (Promega, Madison, Wis.). Luminiscence was quantitated in a MicroLumat LB 96 P luminometer (EG&G Berthold, Wallac […], Upplands Väsby, Sweden).

In the case of `O=C(O)C1(O)CC(O)C(O)C(O)C1` (stereo not shown) [QA, 1,3,4,5-tetrahydroxy-cyclohexanecarboxylic acid], the IC50 [1] is reported as over 2300 µg/mL, the “in vitro cytotoxicity compared to C-MED-100 (FIG. 8)” value [2] is reported as “much greater in vitro cytotoxicity than does C-MED-100®” and the Raji cell proliferation [3] is reported as “neither inhibited the proliferation of Raji tumor cells”. The “fraction of apoptotic T cells” value [4] was “tendency to reduction (p=0.053)”, the “induction of cell death in mitogen-stimulated spleen cells” value [4] was “neither C-MED-100®, QAA nor QA induce cell death” and the “NF-κB activity (luciferase reporter)” value [5] was “in a dose dependent manner, inhibited the NF-κB activity”.
For `O=C(O)[C@]1(O)C[C@@H](O)[C@@H](O)[C@H](O)C1` [QAA, quinic acid ammonium salt], the IC50 [1] was 500 µg/mL, the “in vitro cytotoxicity compared to C-MED-100 (FIG. 8)” value [2] was “in vitro cytotoxicity comparable to that of C-MED-100®” and the IC50 ([2]; Homo sapiens, HL-60) was at most 1100 µg/mL. For the same compound, the Raji cell proliferation [3] was “inhibited cell proliferation in a dose dependent manner”, the “fraction of apoptotic T cells” value [4] was “significantly reduced the fraction of apoptotic T cells” and the “induction of cell death in mitogen-stimulated spleen cells” value [4] was “neither C-MED-100®, QAA nor QA induce cell death”. The “NF-κB activity (luciferase reporter)” value [5] was “inhibited the NF-κB activity to a similar extent as QA”.
